Results from BigSolDB 2.1.

CC(C)=CCOc1c2ccoc2cc2oc(=O)ccc12
solubility (mole fraction)
Settings	288.2 K	293.2 K	298.2 K	303.2 K	308.2 K	313.2 K	318.2 K	323.2 K	328.2 K
in ethanol	0.00263	0.00377	0.00531	0.00733	0.00999	0.0134	0.0178	0.023	0.03
in water	6.03e-07	7.42e-07	9.34e-07	1.02e-06	1.16e-06	1.29e-06	1.68e-06	2.17e-06	2.79e-06
